Patent publication US20130053310A1 (NOVO NORDISK A/S, priority 2010, published 2013)
Entries after “also recorded” stand apart in the source; their conditions may differ.

Experiments:
[1] = Assay (II) ThT fibrillation assay for physical stability; format: physicochemical; settings: shaking 960 rpm; for Assay (II) (pH 4.0) Lag time (hours): ThT fibrillation assay, pH 4.0, 250 μM, 10 mM glycylglycine, 45 hours at 37° C.
From the text: This has traditionally been measured by visual inspection of the sample. However, that kind of measurement is very subjective and depending on the observer. Therefore, the application of a small molecule indicator probe is much more advantageous.
Here, F is the ThT fluorescence at the time t. The constant t0 is the time needed to reach 50% of maximum fluorescence.
Few of those intermediates nucleate to form a template onto which further intermediates may assembly and the fibrillation proceeds. The lag-time corresponds to the interval in which the critical mass of nucleus is built up and the apparent rate constant is the rate with which the fibril itself is formed.
Samples were prepared freshly before each assay. […] The pH of the sample was adjusted to the desired value using appropriate amounts of concentrated NaOH and HCl. Thioflavin T was added to the samples from a stock solution in H2O to a final concentration of 1 μM.
The plate was sealed with Scotch Pad (Qiagen).
Each run was initiated by incubating the plate at the assay temperature for 10 min. The plate was measured every 20 minutes for a desired period of time. Between each measurement, the plate was shaken and heated as described.
The supernatant was filtered through a 0.22 μm filter and an aliquot was transferred to a HPLC vial.
The measurement points were saved in Microsoft Excel format for further processing and curve drawing and fitting was performed using GraphPad Prism.
The data set may be fitted to Eq. (1).

[2] = molecular target: T1, glucagon receptor (Homo sapiens, UniProt P47871); assay: Assay (I) Glucagon activity: cAMP biosensor (ACTOne) FLIPR assay in HEK-293 cells with cloned glucagon receptor; format: cell-based
T1 construct: expressed in transfected cells
Procedure: The cells (14000 per well) were incubated (37° C., 5% CO2) overnight in 384-well plates. Next day the cells were loaded with a calcium responsive dye that only distributed into the cytoplasm. Probenecid, an inhibitor of the organic anion transporter, was added to prevent the dye from leaving the cell. A PDE inhibitor was added to prevent formatted cAMP from being degraded. […] End point data were collected after 6 minutes. An increase in intracellular cAMP was proportional to an increased in calcium concentrations in the cytoplasm. When calcium was bound the dry a fluorescence signal was generated. EC50-values were calculated in Prism5.

T1 sequence (P47871 26-477): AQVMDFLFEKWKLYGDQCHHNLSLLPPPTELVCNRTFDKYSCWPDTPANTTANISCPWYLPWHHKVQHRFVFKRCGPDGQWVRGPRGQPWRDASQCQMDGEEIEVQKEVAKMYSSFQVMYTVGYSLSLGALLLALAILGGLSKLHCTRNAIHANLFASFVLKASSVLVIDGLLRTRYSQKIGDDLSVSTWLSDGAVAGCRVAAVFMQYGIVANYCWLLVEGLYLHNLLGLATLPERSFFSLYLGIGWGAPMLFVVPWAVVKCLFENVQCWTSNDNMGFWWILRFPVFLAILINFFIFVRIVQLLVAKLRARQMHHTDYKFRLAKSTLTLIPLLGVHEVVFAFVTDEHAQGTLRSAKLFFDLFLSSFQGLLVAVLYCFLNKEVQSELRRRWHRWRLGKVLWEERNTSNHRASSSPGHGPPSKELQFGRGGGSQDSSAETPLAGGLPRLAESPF

SMILES | ThT emission / fibrillation upon physical stress ([1]; 250 μM in 1 μM ThT, 10 mM glycylglycine buffer pH 4.0, 45 hours at 37° C.) | EC50 [2] | Assay (II) (pH 4.0) Lag time (hours) [1]
CC(C)C[C@H](NC(=O)[C@H](Cc1ccc(O)cc1)NC(=O)[C@H](CCCCN)NC(=O)[C@H](CO)NC(=O)[C@H](Cc1ccc(O)cc1)NC(=O)[C@H](CC(=O)O)NC(=O)[C@H](CO)NC(=O)[C@@H](NC(=O)[C@H](Cc1ccccc1)NC(=O)[C@@H](NC(=O)CNC(=O)[C@H](CCC(N)=O)NC(=O)[C@H](CO)NC(=O)[C@@H](N)Cc1c[nH]cn1)[C@@H](C)O)[C@@H](C)O)C(=O)N[C@@H](CC(=O)O)C(=O)N[C@@H](CO)C(=O)N[C@@H](CCCNC(=N)N)C(=O)N[C@@H](CCCNC(=N)N)C(=O)N[C@@H](C)C(=O)N[C@@H](CCC(N)=O)C(=O)N[C@@H](CCC(=O)O)C(=O)N[C@@H](Cc1ccccc1)C(=O)N[C@H](C(=O)N[C@@H](CCC(N)=O)C(=O)N[C@@H](CCCNC(=N)N)C(=O)N[C@@H](CC(C)C)C(=O)N[C@@H](CC(C)C)C(=O)N[C@@H](CC(N)=O)C(=O)N[C@H](C(=O)O)[C@@H](C)O)C(C)C [Example 1, [Glu^21, Arg^25, Leu^27]Glucagon] | does not fibrillate; also recorded: no ThT emission occurred | 0.017 nM | 
CC(C)C[C@H](NC(=O)[C@H](Cc1ccc(O)cc1)NC(=O)[C@H](CCCCN)NC(=O)[C@H](CO)NC(=O)[C@H](Cc1ccc(O)cc1)NC(=O)[C@H](CC(=O)O)NC(=O)[C@H](CO)NC(=O)[C@@H](NC(=O)[C@H](Cc1ccccc1)NC(=O)[C@@H](NC(=O)CNC(=O)[C@H](CCC(N)=O)NC(=O)[C@H](CO)NC(=O)[C@@H](N)Cc1c[nH]cn1)[C@@H](C)O)[C@@H](C)O)C(=O)N[C@@H](CC(=O)O)C(=O)N[C@@H](CO)C(=O)N[C@@H](CCCNC(=N)N)C(=O)N[C@@H](CCCNC(=N)N)C(=O)N[C@@H](C)C(=O)N[C@@H](CCC(N)=O)C(=O)N[C@@H](CC(=O)O)C(=O)N[C@@H](Cc1ccccc1)C(=O)N[C@H](C(=O)N[C@@H](CCC(N)=O)C(=O)N[C@@H](Cc1ccc(OP(=O)(O)O)cc1)C(=O)N[C@@H](CC(C)C)C(=O)N[C@@H](CC(C)C)C(=O)N[C@@H](CC(N)=O)C(=O)N[C@H](C(=O)O)[C@@H](C)O)C(C)C [Example 2, [(O-phosphono)Tyr^25,Leu^27]Glucagon] |  | 0.017 nM | 
CC(C)C[C@H](NC(=O)[C@H](Cc1ccc(O)cc1)NC(=O)[C@H](CCCCN)NC(=O)[C@H](CO)NC(=O)[C@H](Cc1ccc(O)cc1)NC(=O)[C@H](CC(=O)O)NC(=O)[C@H](CO)NC(=O)[C@@H](NC(=O)[C@H](Cc1ccccc1)NC(=O)[C@@H](NC(=O)CNC(=O)[C@H](CCC(N)=O)NC(=O)[C@H](CO)NC(=O)[C@@H](N)Cc1c[nH]cn1)[C@@H](C)O)[C@@H](C)O)C(=O)N[C@@H](CC(=O)O)C(=O)N[C@@H](CO)C(=O)N[C@@H](CCCNC(=N)N)C(=O)N[C@@H](CCCNC(=N)N)C(=O)N[C@@H](C)C(=O)N[C@@H](CCC(N)=O)C(=O)N[C@@H](CC(=O)O)C(=O)N[C@@H](Cc1ccccc1)C(=O)N[C@H](C(=O)N[C@@H](CCC(N)=O)C(=O)N[C@@H](CCCNC(=N)N)C(=O)N[C@@H](CC(C)C)C(=O)N[C@@H](CC(C)C)C(=O)N[C@@H](CC(N)=O)C(=O)N[C@H](C(=O)O)[C@@H](C)O)C(C)C [Example 5, [Arg^25, Leu^27]-Glucagon] |  | 0.057 nM | > 45 hours
CC(C)C[C@H](NC(=O)[C@H](Cc1ccc(O)cc1)NC(=O)[C@H](CCCCN)NC(=O)[C@H](CO)NC(=O)[C@H](Cc1ccc(O)cc1)NC(=O)[C@H](CC(=O)O)NC(=O)[C@H](CO)NC(=O)[C@@H](NC(=O)[C@H](Cc1ccccc1)NC(=O)[C@@H](NC(=O)CNC(=O)[C@H](CCC(N)=O)NC(=O)[C@H](CO)NC(=O)[C@@H](N)Cc1c[nH]cn1)[C@@H](C)O)[C@@H](C)O)C(=O)N[C@@H](CC(=O)O)C(=O)N[C@@H](CO)C(=O)N[C@@H](CCCNC(=N)N)C(=O)N[C@@H](CCCNC(=N)N)C(=O)N[C@@H](C)C(=O)N[C@@H](CCC(N)=O)C(=O)N[C@@H](CCC(=O)O)C(=O)N[C@@H](Cc1ccccc1)C(=O)N[C@H](C(=O)N[C@@H](CCC(N)=O)C(=O)N[C@@H](CCCNC(=N)N)C(=O)N[C@@H](CC(C)C)C(=O)N[C@@H](CC(C)C)C(=O)N[C@@H](CO)C(=O)N[C@H](C(=O)O)[C@@H](C)O)C(C)C [Example 6, [Glu^21, Arg^25, Leu^27, Ser^28]-Glucagon] |  | 0.026 nM | > 45 hours
CC(C)C[C@H](NC(=O)[C@H](Cc1ccc(O)cc1)NC(=O)[C@H](CCCCN)NC(=O)[C@H](CO)NC(=O)[C@H](Cc1ccc(O)cc1)NC(=O)[C@H](CC(=O)O)NC(=O)[C@H](CO)NC(=O)[C@@H](NC(=O)[C@H](Cc1ccccc1)NC(=O)[C@@H](NC(=O)CNC(=O)[C@H](CCC(N)=O)NC(=O)[C@H](CO)NC(=O)[C@@H](N)Cc1c[nH]cn1)[C@@H](C)O)[C@@H](C)O)C(=O)N[C@@H](CC(=O)O)C(=O)N[C@@H](CO)C(=O)N[C@@H](CCCNC(=N)N)C(=O)N[C@@H](CCCNC(=N)N)C(=O)N[C@@H](C)C(=O)N[C@@H](CCC(N)=O)C(=O)N[C@@H](CC(=O)O)C(=O)N[C@@H](Cc1ccccc1)C(=O)N[C@H](C(=O)N[C@@H](CCC(N)=O)C(=O)N[C@@H](Cc1c[nH]cn1)C(=O)N[C@@H](CC(C)C)C(=O)N[C@@H](CC(C)C)C(=O)N[C@@H](CC(N)=O)C(=O)N[C@H](C(=O)O)[C@@H](C)O)C(C)C [Example 7, [His^25, Leu^27]-Glucagon] |  | 0.019 nM | > 45 hours
CC(C)C[C@H](NC(=O)[C@H](Cc1ccc(O)cc1)NC(=O)[C@H](CCCCN)NC(=O)[C@H](CO)NC(=O)[C@H](Cc1ccc(O)cc1)NC(=O)[C@H](CC(=O)O)NC(=O)[C@H](CO)NC(=O)[C@@H](NC(=O)[C@H](Cc1ccccc1)NC(=O)[C@@H](NC(=O)CNC(=O)[C@H](CCC(N)=O)NC(=O)[C@H](CO)NC(=O)[C@@H](N)Cc1c[nH]cn1)[C@@H](C)O)[C@@H](C)O)C(=O)N[C@@H](CC(=O)O)C(=O)N[C@@H](CO)C(=O)N[C@@H](CCCNC(=N)N)C(=O)N[C@@H](CCCNC(=N)N)C(=O)N[C@@H](C)C(=O)N[C@@H](CCC(N)=O)C(=O)N[C@@H](CC(=O)O)C(=O)N[C@@H](Cc1ccccc1)C(=O)N[C@H](C(=O)N[C@@H](CCC(N)=O)C(=O)N[C@@H](CCCCN)C(=O)N[C@@H](CC(C)C)C(=O)N[C@@H](CC(C)C)C(=O)N[C@@H](CC(N)=O)C(=O)N[C@H](C(=O)O)[C@@H](C)O)C(C)C [Example 8, [Lys^25, Leu^27]-Glucagon] |  | 0.1 nM | > 45 hours
CC(C)C[C@H](NC(=O)[C@H](Cc1ccc(O)cc1)NC(=O)[C@H](CCCCN)NC(=O)[C@H](CO)NC(=O)[C@H](Cc1ccc(O)cc1)NC(=O)[C@H](CC(=O)O)NC(=O)[C@H](CO)NC(=O)[C@@H](NC(=O)[C@H](Cc1ccccc1)NC(=O)[C@@H](NC(=O)CNC(=O)[C@H](CCC(N)=O)NC(=O)[C@H](CO)NC(=O)[C@@H](N)Cc1c[nH]cn1)[C@@H](C)O)[C@@H](C)O)C(=O)N[C@@H](CC(=O)O)C(=O)N[C@@H](CO)C(=O)N[C@@H](CCCNC(=N)N)C(=O)N[C@@H](CCCNC(=N)N)C(=O)N[C@@H](C)C(=O)N[C@@H](CCC(N)=O)C(=O)N[C@@H](CCC(=O)O)C(=O)N[C@@H](Cc1ccccc1)C(=O)N[C@H](C(=O)N[C@@H](CCC(N)=O)C(=O)N[C@@H](CCCCN)C(=O)N[C@@H](CC(C)C)C(=O)N[C@@H](CC(C)C)C(=O)N[C@@H](CC(N)=O)C(=O)N[C@H](C(=O)O)[C@@H](C)O)C(C)C [Example 9, [Glu^21, Lys^25, Leu^27]-Glucagon] |  | 0.043 nM | > 45 hours
